From patent US9096951B2, “Method for producing second-generation library” (Nuevolution A/S, priority 2003, dated 2015)

Experiments:
Assay type in all cases: binding
[1] = target: integrin aVβ3 (Homo sapiens, UniProt P05106+P06756); experiment: Selection of the 700-member encoded library on immobilised integrin aVβ3, then PCR, cloning and sequencing of identifier codons; conditions: for Count (times the chemical entity's codon was seen after selection): 700-member library after selection, single building block at its position; for Count (times the chemical entity's codon was seen after selection) / share of sequences containing the chemical entity after selection: out of 51 sequences
integrin aVβ3, sequence (P06756 31-889 limits assumed): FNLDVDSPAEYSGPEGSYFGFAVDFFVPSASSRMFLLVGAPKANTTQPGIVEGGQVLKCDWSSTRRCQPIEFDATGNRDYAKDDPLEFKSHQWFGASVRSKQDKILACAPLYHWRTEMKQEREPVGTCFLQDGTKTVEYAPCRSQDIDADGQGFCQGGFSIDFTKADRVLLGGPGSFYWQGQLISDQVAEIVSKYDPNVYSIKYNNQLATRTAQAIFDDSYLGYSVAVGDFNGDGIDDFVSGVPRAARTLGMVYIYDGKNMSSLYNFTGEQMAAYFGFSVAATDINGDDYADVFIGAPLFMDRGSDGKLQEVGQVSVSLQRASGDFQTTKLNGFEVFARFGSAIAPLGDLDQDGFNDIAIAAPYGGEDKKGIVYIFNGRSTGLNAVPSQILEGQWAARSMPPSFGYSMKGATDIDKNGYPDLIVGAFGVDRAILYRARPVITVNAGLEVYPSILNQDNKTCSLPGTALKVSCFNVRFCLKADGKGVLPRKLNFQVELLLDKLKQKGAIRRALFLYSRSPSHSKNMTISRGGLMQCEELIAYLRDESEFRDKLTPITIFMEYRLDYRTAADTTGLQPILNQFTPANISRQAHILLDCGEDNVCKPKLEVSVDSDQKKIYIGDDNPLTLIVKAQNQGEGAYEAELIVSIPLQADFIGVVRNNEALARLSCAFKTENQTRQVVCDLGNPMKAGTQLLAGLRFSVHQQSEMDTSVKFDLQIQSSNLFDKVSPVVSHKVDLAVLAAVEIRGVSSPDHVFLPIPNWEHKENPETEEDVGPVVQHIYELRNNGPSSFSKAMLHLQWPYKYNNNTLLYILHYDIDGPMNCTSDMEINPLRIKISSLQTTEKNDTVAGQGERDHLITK
integrin aVβ3, sequence (P06756 891-1048 partner limits assumed): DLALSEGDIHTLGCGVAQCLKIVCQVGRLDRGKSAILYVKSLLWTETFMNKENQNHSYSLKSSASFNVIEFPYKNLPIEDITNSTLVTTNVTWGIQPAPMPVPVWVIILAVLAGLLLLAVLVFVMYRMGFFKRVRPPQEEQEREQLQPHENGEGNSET
integrin aVβ3, sequence (P05106 27-788): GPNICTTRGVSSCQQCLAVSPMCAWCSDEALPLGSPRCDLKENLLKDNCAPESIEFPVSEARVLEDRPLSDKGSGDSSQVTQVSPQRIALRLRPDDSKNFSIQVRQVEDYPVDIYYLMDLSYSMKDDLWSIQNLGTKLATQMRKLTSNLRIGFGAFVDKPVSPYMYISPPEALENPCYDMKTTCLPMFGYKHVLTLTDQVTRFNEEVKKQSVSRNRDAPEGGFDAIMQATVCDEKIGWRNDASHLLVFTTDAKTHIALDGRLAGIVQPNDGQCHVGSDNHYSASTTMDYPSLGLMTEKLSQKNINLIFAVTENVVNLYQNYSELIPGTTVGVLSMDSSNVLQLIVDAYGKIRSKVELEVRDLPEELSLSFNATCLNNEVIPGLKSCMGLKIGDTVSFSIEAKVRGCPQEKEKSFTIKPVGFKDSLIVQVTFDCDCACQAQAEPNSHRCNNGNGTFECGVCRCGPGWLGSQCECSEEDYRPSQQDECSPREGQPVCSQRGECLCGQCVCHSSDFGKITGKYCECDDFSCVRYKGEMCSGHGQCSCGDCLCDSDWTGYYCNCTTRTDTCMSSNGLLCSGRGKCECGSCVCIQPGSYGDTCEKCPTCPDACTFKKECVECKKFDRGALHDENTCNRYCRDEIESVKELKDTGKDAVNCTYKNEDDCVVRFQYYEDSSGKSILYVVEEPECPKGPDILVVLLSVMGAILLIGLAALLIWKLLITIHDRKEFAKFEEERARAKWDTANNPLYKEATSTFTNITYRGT
Experimental: Maxisorp ELISA wells (NUNC A/S, Denmark) were coated with each 100 μL 2 μg/mL integrin aVβ3 in PBS buffer [2.8 mM NaH2PO4, 7.2 mM Na2HPO4, 0.15 M NaCl, pH 7.2] overnight at 4° C. Then the integrin solution was substituted for 200 μl blocking buffer [TBS, 0.05% Tween 20 (Sigma P-9416), 1% bovine serum alnumin (Sigma A-7030), 1 mM MnCl2] which was left on for 3 hours at room temperature. Then the wells were washed 10 times with blocking buffer and the encoded library was added to the wells after diluting it 100 times with blocking buffer. Following 2 hours incubation at room temperature the wells were washed 10 times with blocking buffer. After the final wash the wells were cleared of wash buffer and subsequently inverted and exposed to UV light at 300-350 nm for 30 seconds using a trans-illuminator set at 70% power. Then 100 μl blocking buffer without Tween-20 was immediately added to each well, the wells were shaken for 30 seconds, and the solutions containing eluted identifiers were removed for PCR amplification.
A TOPO-TA (Invitrogen) ligation reaction is assembled with 4 μl PCR product, 1 μl salt solution (Invitrogen) and 1 μl vector. Water is added to 6 μl. The reaction is then incubated at RT for 30 min. Heat-shock competent TOP10 E. coli cells are then thawed on ice and 5 μl of the ligation reaction is added to the thawed cells. The cells are then incubated 30 min on ice, heatshocked in 42° C. water for 30 sec, and then put on ice again. 250 μl of growth medium is added to the cells and they are incubated 1 h at 37° C. The medium containing cells is then spread on a growth plate containing 100 μg/ml ampicillin and incubated at 37° C. for 16 hours.
Individual E. coli clones are then picked and transferred to PCR wells containing 50 μl water. These 50 μl were incubated at 94° C. for 5 minutes and used in a 20 μl in a 25 μl PCR reaction with […] of each TOPO primer M13 forward & M13 reverse and Ready-To-Go PCR beads (Amersham Biosciences). The following PCR profile is used: 94° C. 2 min, then 30×(94° C. 4 sec, 50° C. 30 sec, 72° C. 1, min) then 72° C. 10 min. Primers and nucleotides are then degraded by adding 1 μl 1:1 EXO/SAP mixture (USB corp.) to 2 μl PCR product and incubating at 37° C. for 15 min and then 80° C. for 15 min to heat-inactivate the enzymes. […] T7 primer is added and water is added to 12 μl. Then 8 μl DYEnamic ET cycle sequencing Terminator Mix (Applied biosystems) is added to each well. A thermocycling profile of 30×(95° C. 20 sec, 50° C. 15 sec, 60° C. 1 min) is then run. Then 10 μl water is added to each well and sequencing reactions are purified using seq96 spinplates (Amersham Biosciences). Reactions are then run on a MegaBace capillary electrophoresis instrument (Molecular Dynamics) using injection parameters 2 kV, 50 sec and run parameters: 9 kV 45 min and analyzed using Contig Express software (Informax).
After the selection as described above, the codons in the identifier oligonucleotides were analysed. Before the analysis, the identifier oligonucleotides were amplified using the constant flanking regions and the amplified material was used in the identifier sequence analysis.

[2] = target: T1, Integrin αvβ3 receptor (Homo sapiens, UniProt P05106+P06756); experiment: Selection of Library 1 and Library 2 (61,875 members each) for binders of the Integrin αvβ3 receptor, then building block abundance analysis; conditions: value = library (1, 2) in which it was more abundant after selection; for More abundant in position 3 in library no.: building block chosen for Library 3 position 3; for More abundant in position 2 in library no.: building block chosen for Library 3 position 2
T1 sequence (P06756 31-889 limits assumed): as the sequence (P06756 31-889 limits assumed) above
T1 sequence (P06756 891-1048 partner limits assumed): as the sequence (P06756 891-1048 partner limits assumed) above
T1 sequence (P05106 27-788): as the sequence (P05106 27-788) above
Excerpt: The following scheme describes the split and mix assembly of the libraries: • i.) n times [BB1+Oligo1→BB1−Oligo1] in separate wells • Optionally purify product • ii.) mix all n wells into one tube • iii.) split product of ii.) into m separate wells • iv.) m times [BB2+BB1−Oligo1+Oligo2→BB2−BB1−Oligo1−Oligo2] in separate wells • Optionally purify product • v.) mix all m wells into one tube • vi.) split product of v.) into p separate wells • vii.) p times [BB3+BB2−BB1−Oligo1−Oligo2+Oligo3→BB3−BB2−BB1−Oligo1−Oligo2−Oligo3] in separate wells Optionally purify product • viii.) mix all p wells into one tube • ix.) Selection was performed and binders isolated • x.) PCR of DNA and sequencing • xi.) Analyse for building block abundancy and full sequence information
Building block abundances analysis may be done by QPCR or by sequencing full sequences and then analyzing for the abundance of individual building blocks.
Two libraries of 61,875 members (Library 1 and 2) were generated as described in example 6 above and selected for binders of the Integrin αvβ3 receptor separately. The libraries were generated with 99 different building blocks in position 1, 25 different building blocks in position 2 and 25 different building blocks in position 3.
(§1) The identified sequences were then analyzed for the abundances of building blocks at each position in the sequence. The most abundant building blocks at each position from the two libraries 1 and 2 were then used again to generate a new and smaller library of 1,365 members, which was selected for binders of the Integrin αvβ3 receptor. The library was generated with 7 different building blocks in position 1, 13 different building blocks in position 2 and 15 different building blocks in position 3.

[3] = target: T1, Integrin αvβ3 receptor; experiment: Selection of the second-generation library (Library 3, 1,365 members) for binders of the Integrin αvβ3 receptor, then sequencing of isolated identifiers; conditions: 31 analysed sequences
Experimental: as §1
A subset of the isolated sequences from the library post selection was analysed:
These sequences could be translated into the following building block compositions: […]

Row | Count (times the chemical entity's codon was seen after selection) [1] | Compound | also measured
1 | 13 | C=CCCC(=O)N1CC(C(=O)O)C1 [BBA0001582] | –
2 | 1 | C=CCCC(=O)NCc1cccc(C(=O)O)c1 [BBA0003132] | –
3 | 1 | C=CCCC(=O)N1CCC[C@H]1C(=O)O [BBA0003142] | –
4 | 1 | C=CCCC(=O)N[C@H]1CCCC[C@H]1C(=O)O [BBA0003152] | –
5 | 2 | C=CCCC(=O)NCc1ccc(C(=O)O)cc1 [BBA0003172] | –
6 | 5 | C=CCCC(=O)NCCCC(=O)O [BBA0004182] | –
7 | 2 | C=CCCC(=O)N[C@H]1CC[C@@H](C(=O)O)C1 [BBA0004212] | –
8 | 2 | C=CCCC(=O)N1CCCC[C@H]1C(=O)O [BBA0004232] | –
9 | 6 | C=CCCC(=O)N1CCCC[C@@H]1C(=O)O [BBA0004242] | –
10 | 1 | CC(C)(C)OC(=O)NC(CCCCNC(=O)c1ccccn1)C(=O)O (stereo not shown) [BBA0008312] | –
11 | 2 | O=C(O)c1csc(-c2cccnc2)n1 [BBA0008512] | –

Second part, the compound before the results:

Row | Compound | Count (times the chemical entity's codon was seen after selection) [1] | also measured
12 | N[C@@H](CC(=O)O)C(=O)O [BB-A-000098, L-Asp] | 47 | share of the chemical entity before the selection [1]: 25%; share of sequences containing the chemical entity after selection [1]: 92%; More abundant in position 3 in library no. [2]: 1; building block abundance per position in sequences isolated post selection [3]: dominated
13 | C=CCCC(=O)N1CCC[C@@H]1C(=O)O [BBA000064] | 1 | –
14 | C=CCCC(=O)N[C@@H](C)CC(=O)O [BBA000099, Gly] | 14 | share of the chemical entity before the selection [1]: 4%; share of sequences containing the chemical entity after selection [1]: 27%; building block abundance per position in sequences isolated post selection [3]: dominated
15 | N[C@H](CC(=O)O)C(=O)O [BBA000152, D-Asp] | – | More abundant in position 1 in library no. ([2]; building block chosen for Library 3 position 1): 1; More abundant in position 2 in library no. [2]: 2; building block abundance per position in sequences isolated post selection [3]: also found
16 | O=C(O)CCCNc1ccccn1 [BBA0000531] | 35 | share of the chemical entity before the selection [1]: 14%; share of sequences containing the chemical entity after selection [1]: 68%; More abundant in position 3 in library no. [2]: 2
17 | C=CCCC(=O)NCC(=O)O [BBA0000592] | – | More abundant in position 2 in library no. [2]: 1
18 | C=CCCC(=O)N1CCCC(C(=O)O)C1 (stereo not shown) [BBA0000832] | – | More abundant in position 2 in library no. [2]: 1
19 | O=C(O)CCCc1ccc2c(n1)NCCC2 [BBA0001006] | 4 | –
20 | C=CCCC(=O)C(CCC(=O)O)CC1CC1 (stereo not shown) [BBA0001011] | 1 | –
21 | C=CCCC(=O)N(CCC)CCC(=O)O [BBA0001101] | 2 | –
22 | CC(CCC(=O)O)Nc1ccccn1 (stereo not shown) [BBA0001391] | 9 | More abundant in position 3 in library no. [2]: 2
23 | CC(CCCC(=O)O)Nc1ccccn1 (stereo not shown) [BBA0001401] | – | More abundant in position 3 in library no. [2]: 2
24 | C=CCCC(=O)N[C@@H]1CC[C@H](C(=O)O)C1 [BBA0004222] | – | More abundant in position 2 in library no. [2]: 2
